From patent US11440907B1 (Merck Patent GmbH, priority 2018, dated 2022)

test system: β-catenin-TCF-mediated reporter transcription activity in Colo 205 cells; assay: Colo 205 reporter assay (TCF/LEF promoter-driven firefly luciferase); assay type: cell-based; conditions: Homo sapiens; Colo 205 TCF/LEF luciferase reporter, 5 hours after compound addition, 384 well; read-out: Colo205 IC50
Text: The compounds of the invention described herein were screened using the assay procedure for β-catenin-TCF-mediated reporter transcription activity described below.
Reporter cell lines were generated by stably transfecting cells of cancer cell lines (e.g., colon cancer) with a plasmid reporter construct (From SABiosciences, a QIAGEN company) that includes TCF/LEF promoter driving expression of the firefly luciferase gene. TCF/LEF reporter constructs were made in which TCF/LEF promoter, a promoter with optimal number of TCF/LEF binding sites designed by SABiosciences, was linked upstream of the firefly luciferase gene. This construct could also include a puromycin resistance gene as a selectable marker. This construct could also be used to stably transfect Colo 205 cells, a colon cancer cell line having a mutated APC gene that causes a constitutively active β-catenin. A control cell line was generated using another plasmid construct containing the luciferase gene under the control of a CMV basal promoter which is not activated by β-catenin.
Colo 205 Cultured cells with a stably transfected reporter construct were plated at approximately 10,000 cells per well into 384 well multi-well plates for twenty four hours. The testing compounds were then added to the wells in 2-fold serial dilutions using a twenty micromolar top concentration. A series of control wells for each cell type received only compound solvent. Five hours after the addition of compound, reporter activity for luciferase was assayed, by addition of the SteadyGlo luminescence reagent (Promega). The reporter luminescence activity was measured using Pherastar plate reader (BMG Labtech). Readings were normalized to DMSO only treated cells, and normalized activities were then used in the IC50 calculations. The Colo 205 reporter assay data are summarized in Table 3: A<0.3 μM; 0.3 μM≤B<1.0 μM; 1.0 μM≤C<5.0 μM; D≥5.0 μM.

IC50 [µM]	Compound
0.3 to 1	CSc1ccccc1C1CCCCCN1c1cc(C)nc(N)n1 (racemic) [I-5, (+/−)-4-methyl-6-(2-(2-(methylthio)phenyl)azepan-1-yl)pyrimidin-2-amine]
< 0.3	Cc1cc(N2CCCOCC2c2ccccc2Cl)nc(N)n1 (racemic) [I-19, (+/−)-4-[3-(2-chlorophenyl)-1,4-oxazepan-4-yl]-6-methyl-pyrimidin-2-amine]
< 0.3	Cc1cc(N2CCCOCC2c2ccccc2F)nc(N)n1 (racemic) [I-32, (+/−)-4-[3-(2-fluorophenyl)-1,4-oxazepan-4-yl]-6-methyl-pyrimidin-2-amine]
0.3 to 1	Cc1cc(N2CCCOCC2c2ccc(F)cc2Cl)nc(N)n1 (racemic) [I-63, (+/−)-4-[3-(2-chloro-4-fluoro-phenyl)-1,4-oxazepan-4-yl]-6-methyl-pyrimidin-2-amine]
1 to 5	Cc1cc(N2CCCOCC2c2ccc(S(C)(=O)=O)cc2Cl)nc(N)n1 (racemic) [I-66, (+/−)-4-(3-(2-chloro-4-(methylsulfonyl)phenyl)-1,4-oxazepan-4-yl)-6-methylpyrimidin-2-amine]
0.3 to 1	COc1cc(S(C)(=O)=O)ccc1C1CCCCCN1c1cc(C)nc(N)n1 (racemic) [I-88, (+/−)-4-(2-(2-methoxy-4-(methylsulfonyl)phenyl)azepan-1-yl)-6-methylpyrimidin-2-amine]
0.3 to 1	COc1ccc(OC)c(C2COCCCN2c2cc(C)nc(N)n2)c1 (racemic) [I-93, (+/−)-4-[3-(2,5-dimethoxyphenyl)-1,4-oxazepan-4-yl]-6-methyl-pyrimidin-2-amine]
0.3 to 1	Cc1cc(N2CCCOCC2c2cc([S+](C)[O-])ccc2Cl)nc(N)n1 (racemic) [I-110, (+/−)-4-(3-(2-chloro-5-(methylsulfinyl)phenyl)-1,4-oxazepan-4-yl)-6-methylpyrimidin-2-amine]
0.3 to 1	COC(=O)c1ccc(OC)c(C2CCCCCN2c2cc(C)nc(N)n2)c1 (racemic) [I-111, (+/−)-Methyl 3-(1-(2-amino-6-methylpyrimidin-4-yl)azepan-2-yl)-4-methoxybenzoate]
0.3 to 1	Cc1cc(N2CCCOCC2c2cc3c(cc2Cl)OCO3)nc(N)n1 (racemic) [I-113, (+/−)-4-[3-(6-chloro-1,3-benzodioxol-5-yl)-1,4-oxazepan-4-yl]-6-methyl-pyrimidin-2-amine]
0.3 to 1	COc1ccc(C(=O)N(C)C)cc1C1CCCCCN1c1cc(C)nc(N)n1 (racemic) [I-115, (+/−)-3-(1-(2-amino-6-methylpyrimidin-4-yl)azepan-2-yl)-4-methoxy-N,N-dimethylbenzamide]
0.3 to 1	COC(=O)c1ccc(Cl)c(C2COCCCN2c2cc(C)nc(N)n2)c1 (racemic) [I-126, (+/−)-Methyl 3-(4-(2-amino-6-methylpyrimidin-4-yl)-1,4-oxazepan-3-yl)-4-chlorobenzoate]
0.3 to 1	CNC(=O)c1ccc(Cl)c(C2COCCCN2c2cc(C)nc(N)n2)c1 (racemic) [I-129, (+/−)-3-(4-(2-amino-6-methylpyrimidin-4-yl)-1,4-oxazepan-3-yl)-4-chloro-N-methylbenzamide]
0.3 to 1	Cc1cc(N2CCCOCC2c2ccc(-n3cccn3)cc2Cl)nc(N)n1 (racemic) [I-133, (+/−)-4-(3-(2-chloro-4-(1H-pyrazol-1-yl)phenyl)-1,4-oxazepan-4-yl)-6-methylpyrimidin-2-amine]
0.3 to 1	Cc1cc(N2CCCOCC2c2ccc(NS(C)(=O)=O)cc2Cl)nc(N)n1 (racemic) [I-139, (+/−)-N-[4-[4-(2-amino-6-methyl-pyrimidin-4-yl)-1,4-oxazepan-3-yl]-3-chloro-phenyl]methanesulfonamide]

test system: XBP1(u)-luciferase splicing reporter in HepG2 hepatoma cells; assay: HepG2 XBP1 reporter assay (XBP1(u)-Luc); assay type: cell-based; conditions: Homo sapiens, 6 h, six hours after addition of compound
Text: HepG2 XBP1 Reporter Assay
HepG2 hepatoma cells were transduced with a retrovirus encoding the cDNA for unspliced (u) XBP1, which contains a non-processed intron, fused to the cDNA for firefly luciferase. Upon induction of ER stress, the non-processed intron of XBP1(u) is spliced out by active IRE1alpha endonuclease. The resulting spliced (s) XBP1 is now in frame with luciferase which causes the production of active luciferase protein, resulting in bioluminescence
HepG2 XBP1(u)-Luc cells were plated […] Cultured cells with a stably transfected reporter construct were plated at approximately 30,000 cells per well into 96 well multi-well plates for twenty four hours. The testing compounds were then added to the wells in 3-fold serial dilutions using a twenty seven micromolar top concentration. A series of control wells for each cell type received only compound solvent. Six hours after the addition of compound, reporter activity for luciferase was assayed, by addition of the SteadyGlo luminescence reagent (Promega). The reporter luminescence activity was measured using Pherastar plate reader (BMG Labtech). Readings was normalized to DMSO only treated cells, and normalized activities were then used in the IC50 calculations. The HepG2 XBP1 reporter assay data are summarized in Tables 3-5: A<0.6 μM; 0.6 μM≤B<2.0 μM; 2.0 μM≤C<5.0 μM; D≥5.0 μM.

IC50 [µM]	Compound
≥ 5	CS(=O)(=O)c1ccc(C2COCCCN2c2ccnc(N)n2)c(Cl)c1 [D-138]
0.6 to 2	Cc1cc(N2CCCOC[C@@H]2c2ccc([C@H](C)S(C)(=O)=O)cc2Cl)nc(N)n1 [D-139]
≥ 5	Cc1cc(N2CCCOCC2c2ccc(Br)cc2OC(F)(F)F)nc(N)n1 [D-140]
≥ 5	Cc1cc(N2CCCOCC2c2cc(CC(=O)O)c(C#N)cc2Cl)nc(N)n1 [D-156]
≥ 5	CCOc1cc(C2COCCCN2c2cc(C)nc(N)n2)c(Cl)cc1OCC(=O)O [D-160]
≥ 5	Cc1cc(N2CCCOC[C@H]2c2cc(N)c(OC(F)(F)F)cc2Cl)nc(N)n1 [D-161]
≥ 5	CCc1cc(N2CCCOC[C@H]2c2ccc(OS(C)(=O)=O)cc2Cl)nc(N)n1 [D-162]
≥ 5	Cc1cc(N2CCCOC[C@H]2c2ccc(C3CCN(C4COC4)CC3)cc2Cl)nc(N)n1 [D-163]
≥ 5	Cc1cc(N2CCCOC[C@H]2c2cc(CN)c(C)cc2Cl)nc(N)n1 [D-164]
≥ 5	Cc1cc(N2CCCOC[C@H]2c2cc(O)c(C)cc2Cl)nc(N)n1 [D-165]
≥ 5	Cc1cc(N2CCCOC[C@@H]2c2cnc(CS(C)(=O)=O)cc2Cl)nc(N)n1 [D-166]
≥ 5	Cc1cc(N2CCCOC[C@H]2c2ncc(CS(C)(=O)=O)cc2Cl)nc(N)n1 [D-167]
≥ 5	COc1ccc([C@@H]2COCCCN2c2cc(C)nc(N)n2)c(Cl)c1 [D-168]
≥ 5	Cc1cc(N2CCCOC[C@H]2c2cc(O)c(CS(C)(=O)=O)cc2Cl)nc(N)n1 [D-171]
≥ 5	Cc1cc(N2CCCOCC2c2cnc(CS(C)(=O)=O)nc2O)nc(N)n1 [D-172]
≥ 5	Cc1cc(N2CCCOC[C@H]2c2ccc(CS(C)(=O)=O)nc2OC(F)F)nc(N)n1 [D-173]
≥ 5	Cc1cc(N2CCCOC[C@H]2c2cc(CN)c(Cl)cc2C)nc(N)n1 [D-174]

IC50 [µM]	Compound
≥ 5	Cc1cc(N2CCCOCC2c2ccc3ncnn3c2)nc(N)n1 [D-175]
≥ 5	CCOc1cc([C@@H]2COCCCN2c2cc(C)nc(N)n2)c(Cl)cc1OCC(N)=O [D-176]
≥ 5	Cc1cc(N2CCCOCC2c2ccc(Cl)cc2C(=O)O)nc(N)n1 [D-177]
≥ 5	C#CCOc1cc(Cl)c([C@@H]2COCCCN2c2cc(C)nc(N)n2)cc1OC [D-178]
≥ 5	CCc1cc(N2CCCOC[C@H]2c2cc(O)c(OC)cc2Cl)nc(N)n1 [D-179]
≥ 5	Cc1cc(N2CCCOC[C@H]2c2cc(O)c(C(N)=O)cc2Cl)nc(N)n1 [D-180]
≥ 5	Cc1cc(N2CCCOC[C@@H]2c2cc3c(cc2Cl)NC[C@@](C)(C(=O)O)O3)nc(N)n1 [D-181]
≥ 5	CNC(=O)c1cc(Cl)c([C@@H]2COCCCN2c2cc(C)nc(N)n2)cc1O [D-182]
≥ 5	Cc1cc(N2CCCOC[C@H]2c2cc(O)c(C(=O)N(C)C)cc2Cl)nc(N)n1 [D-183]
≥ 5	Cc1cc(N2CCCOC[C@H]2c2cc(O)c(OC(F)(F)F)cc2Cl)nc(N)n1 [D-184]
≥ 5	Cc1cc(N2CCCOC[C@H]2c2cc(O)c(C(=O)NCCO)cc2Cl)nc(N)n1 [D-185]
≥ 5	Cc1cc(N2CCCOC[C@H]2c2cc(O)c(C(=O)NC3CC3)cc2Cl)nc(N)n1 [D-186]
≥ 5	Cc1cc(N2CCCOCC2c2ccc(C(=O)O)cc2Cl)nc(N)n1 [D-187]
≥ 5	CS(=O)(=O)c1ccc(C2COCCCN2c2cc(C(F)(F)F)nc(N)n2)c(Cl)c1 [D-188]
≥ 5	Cc1cc(N2CCCOC[C@H]2c2cc(O)c(C(=O)N3CCOCC3)cc2Cl)nc(N)n1 [D-189]
≥ 5	Cc1cc(N2CCCOCC2c2ccc(S(C)(=O)=O)cc2C#N)nc(N)n1 [D-190]
≥ 5	Cc1cc(N2CCCOC[C@@H]2c2ccc(C(C)(C)S(C)(=O)=O)cc2Cl)nc(N)n1 [D-191]
